Converted amounts (≈) assume the structure as drawn. Where a SMILES comes first, the peptide text is derived from it.
What was measured:
[1] = system: human red blood cells (hRBCs); assay: Hemolytic activity determination; format: cell-based; details: peptide 25 μg ml^–1; hRBCs in 0.9% sodium chloride, 37°C, 1 h, OD540, 1% Triton X-100 = 100%; three independent experiments
Description: Fresh human red blood cells (hRBCs) were collected in a sterile borosilicate glass tube covered with sodium citrate as the anticoagulating agent. […] Two-fold dilutions of the peptides were prepared in 0.9% sodium chloride to 100 μl and mixed with equal volumn of hRBC suspension to final peptide concentrations ranging from 12.5 to 200 μg ml^–1. After co-incubation at 37°C for 1 h, the samples were centrifuged (2,000 × g, 4°C, 20 min), and the supernatant (100 μl) was taken for optical density (OD540) measurements (Asample). The hRBCs assayed with 0.9% sodium chloride (Ablank) or 1% Triton X-100 (Apositive) were applied as 0% and 100% hemolysis, respectively. Three independent experiments were performed and the percent hemolysis was calculated according to the following equation ([Yin et al., 2012]; [Li et al., 2016]):
Hemolysis(%)=100*(Asample-Ablank)/(Apositive-Ablank)

S. aureus ATCC29213 = assay: MIC, broth dilution; format: cell-based, Staphylococcus aureus; details: CLSI broth dilution, MHB, 6.25 × 10^5 cfu per ml, 37°C, 20 h, OD630, at least three repeats
Description: All experiments were repeated at least three times.
To study the influence of physiological ions on the antimicrobial activities of the peptides, The MICs of the peptides were also determined against the standard bacterial strains cultured in MHB containing various salts at their physiological concentrations (150 mM NaCl, 4.5 mM KCl, 1 mM MgCl2, 2 mM CaCl2, 6 μM NH4HCO3, and 4 μM FeCl3) ([Ma et al., 2016]).

E. coli ATCC25922 = assay: MIC, broth dilution; format: cell-based, Escherichia coli; details: CLSI broth dilution, MHB, 6.25 × 10^5 cfu per ml, 37°C, 20 h, OD630, at least three repeats

Q: What does the source list for `CC[C@H](C)[C@H](NC(=O)[C@H](CCCNC(=N)N)NC(=O)CNC(=O)[C@@H](NC(=O)[C@@H](N)Cc1ccccc1)[C@@H](C)CC)C(=O)N[C@@H](C)C(=O)N[C@@H](CCCNC(=N)N)C(=O)N[C@@H](CC(C)C)C(=O)N[C@@H](CC(C)C)C(=O)N[C@@H](CO)C(=O)N[C@@H](CCCCN)C(=O)N[C@H](C(=O)N[C@@H](Cc1ccccc1)C(N)=O)[C@@H](C)CC` [Kn2(A4R)] (H-FIGRIARLLSKIF-NH2)?
A: percent hRBC hemolysis [1]: 100%; MIC (S. aureus ATCC29213): 5 µg/mL (≈ 3.26 µM); MIC (E. coli ATCC25922): 10 µg/mL (≈ 6.52 µM)

Q: How did the “percent hRBC hemolysis” value [1] turn out when `CC[C@H](C)[C@H](NC(=O)[C@H](CCCNC(=N)N)NC(=O)CNC(=O)[C@@H](NC(=O)[C@@H](N)Cc1ccccc1)[C@@H](C)CC)C(=O)N[C@@H](C)C(=O)N[C@@H](CCCNC(=N)N)C(=O)N[C@@H](CC(C)C)C(=O)N[C@@H](CC(C)C)C(=O)N[C@@H](CCCNC(=N)N)C(=O)N[C@@H](CCCCN)C(=O)N[C@H](C(=O)N[C@@H](Cc1ccccc1)C(N)=O)[C@@H](C)CC` [Kn2(A4R_S10R)] (H-FIGRIARLLRKIF-NH2) was run?
A: The value was 18.0%.

Q: And the MIC (S. aureus ATCC29213)?
A: Its MIC is 10 µg/mL (≈ 6.24 µM).

Q: What about the MIC (E. coli ATCC25922) of the same compound?
A: Its MIC is 20 µg/mL (≈ 12.5 µM).

Q: Which “percent hRBC hemolysis” value [1] does the source give for `CC[C@H](C)[C@H](NC(=O)[C@H](C)NC(=O)[C@H](CCCCN)NC(=O)[C@@H](NC(=O)[C@@H](N)Cc1ccccc1)[C@@H](C)CC)C(=O)N[C@@H](C)C(=O)N[C@@H](CCCNC(=N)N)C(=O)N[C@@H](CC(C)C)C(=O)N[C@@H](CC(C)C)C(=O)N[C@@H](CO)C(=O)N[C@@H](CCCCN)C(=O)N[C@H](C(=O)N[C@@H](Cc1ccccc1)C(N)=O)[C@@H](C)CC` [Kn2(G3K)] (H-FIKAIARLLSKIF-NH2) here?
A: Its value is 69.0%.

Q: And the MIC (S. aureus ATCC29213)?
A: Its MIC is 5 µg/mL (≈ 3.29 µM).

Q: What about the MIC (E. coli ATCC25922) of the same compound?
A: Its MIC is 40 µg/mL (≈ 26.3 µM).

Q: For `CC[C@H](C)[C@H](NC(=O)[C@H](CCCNC(=N)N)NC(=O)[C@H](CCCCN)NC(=O)[C@@H](NC(=O)[C@@H](N)Cc1ccccc1)[C@@H](C)CC)C(=O)N[C@@H](C)C(=O)N[C@@H](CCCNC(=N)N)C(=O)N[C@@H](CC(C)C)C(=O)N[C@@H](CC(C)C)C(=O)N[C@@H](CO)C(=O)N[C@@H](CCCCN)C(=O)N[C@H](C(=O)N[C@@H](Cc1ccccc1)C(N)=O)[C@@H](C)CC` [Kn2(G3K_A4R)] (H-FIKRIARLLSKIF-NH2), which “percent hRBC hemolysis” value [1] is on record?
A: Its value is 8.3%.

Q: And the MIC (S. aureus ATCC29213)?
A: The MIC was 5 µg/mL (≈ 3.12 µM).

Q: And the MIC (E. coli ATCC25922)?
A: The MIC was 10 µg/mL (≈ 6.23 µM).

Q: For `CC[C@H](C)[C@H](NC(=O)[C@H](C)NC(=O)[C@H](CCCCN)NC(=O)[C@@H](NC(=O)[C@@H](N)Cc1ccccc1)[C@@H](C)CC)C(=O)N[C@@H](C)C(=O)N[C@@H](CCCNC(=N)N)C(=O)N[C@@H](CC(C)C)C(=O)N[C@@H](CC(C)C)C(=O)N[C@@H](CCCNC(=N)N)C(=O)N[C@@H](CCCCN)C(=O)N[C@H](C(=O)N[C@@H](Cc1ccccc1)C(N)=O)[C@@H](C)CC` [Kn2(G3K_S10R)] (H-FIKAIARLLRKIF-NH2), which “percent hRBC hemolysis” value [1] is on record?
A: Its value is 77.5%.

Q: What about the MIC (S. aureus ATCC29213) of the same compound?
A: The MIC was 10 µg/mL (≈ 6.3 µM).

Q: What about the MIC (E. coli ATCC25922) of the same compound?
A: The MIC was 20 µg/mL (≈ 12.6 µM).

Q: Which results are given for `CC[C@H](C)[C@H](NC(=O)[C@H](C)NC(=O)CNC(=O)[C@@H](NC(=O)[C@@H](N)Cc1ccccc1)[C@@H](C)CC)C(=O)N[C@@H](C)C(=O)N[C@@H](CCCNC(=N)N)C(=O)N[C@@H](CC(C)C)C(=O)N[C@@H](CC(C)C)C(=O)N[C@@H](CCCNC(=N)N)C(=O)N[C@@H](CCCCN)C(=O)N[C@H](C(=O)N[C@@H](Cc1ccccc1)C(N)=O)[C@@H](C)CC` [Kn2(S10R)] (H-FIGAIARLLRKIF-NH2)?
A: percent hRBC hemolysis [1]: 50.9%; MIC (S. aureus ATCC29213): 10 µg/mL (≈ 6.59 µM); MIC (E. coli ATCC25922): 20 µg/mL (≈ 13.2 µM)

Q: Which results are given for `CC[C@H](C)[C@H](NC(=O)[C@H](CCCNC(=N)N)NC(=O)[C@H](CCCCN)NC(=O)[C@@H](NC(=O)[C@@H](N)Cc1ccccc1)[C@@H](C)CC)C(=O)N[C@@H](C)C(=O)N[C@@H](CCCNC(=N)N)C(=O)N[C@@H](CC(C)C)C(=O)N[C@@H](CC(C)C)C(=O)N[C@@H](CCCNC(=N)N)C(=O)N[C@@H](CCCNC(=N)N)C(=O)N[C@H](C(=O)N[C@@H](Cc1ccccc1)C(N)=O)[C@@H](C)CC` [Kn2-7(K11R)] (H-FIKRIARLLRRIF-NH2)?
A: MIC (S. aureus ATCC29213): 5 µg/mL (≈ 2.94 µM); MIC (E. coli ATCC25922): 10 µg/mL (≈ 5.88 µM)

Q: With `CC[C@H](C)[C@H](NC(=O)[C@H](CCCCN)NC(=O)[C@H](CCCCN)NC(=O)[C@@H](NC(=O)[C@@H](N)Cc1ccccc1)[C@@H](C)CC)C(=O)N[C@@H](C)C(=O)N[C@@H](CCCNC(=N)N)C(=O)N[C@@H](CC(C)C)C(=O)N[C@@H](CC(C)C)C(=O)N[C@@H](CCCNC(=N)N)C(=O)N[C@@H](CCCCN)C(=O)N[C@H](C(=O)N[C@@H](Cc1ccccc1)C(N)=O)[C@@H](C)CC` [Kn2-7(R4K)] (H-FIKKIARLLRKIF-NH2) as the compound, how does the MIC (S. aureus ATCC29213) read?
A: Its MIC is 5 µg/mL (≈ 3.04 µM).

Q: What about the MIC (E. coli ATCC25922) of the same compound?
A: Its MIC is 5 µg/mL (≈ 3.04 µM).

Q: Which results are given for `CC[C@H](C)[C@H](NC(=O)[C@H](CCCCN)NC(=O)[C@H](CCCCN)NC(=O)[C@@H](NC(=O)[C@@H](N)Cc1ccccc1)[C@@H](C)CC)C(=O)N[C@@H](C)C(=O)N[C@@H](CCCCN)C(=O)N[C@@H](CC(C)C)C(=O)N[C@@H](CC(C)C)C(=O)N[C@@H](CCCNC(=N)N)C(=O)N[C@@H](CCCCN)C(=O)N[C@H](C(=O)N[C@@H](Cc1ccccc1)C(N)=O)[C@@H](C)CC` [Kn2-7(R4K_R7K)] (H-FIKKIAKLLRKIF-NH2)?
A: MIC (S. aureus ATCC29213): 5 µg/mL (≈ 3.09 µM); MIC (E. coli ATCC25922): 10 µg/mL (≈ 6.18 µM)

Q: Which results are given for `CC[C@H](C)[C@H](NC(=O)[C@H](CCCCN)NC(=O)[C@H](CCCCN)NC(=O)[C@@H](NC(=O)[C@@H](N)Cc1ccccc1)[C@@H](C)CC)C(=O)N[C@@H](C)C(=O)N[C@@H](CCCNC(=N)N)C(=O)N[C@@H](CC(C)C)C(=O)N[C@@H](CC(C)C)C(=O)N[C@@H](CCCCN)C(=O)N[C@@H](CCCCN)C(=O)N[C@H](C(=O)N[C@@H](Cc1ccccc1)C(N)=O)[C@@H](C)CC` [Kn2-7(R4K_R10K)] (H-FIKKIARLLKKIF-NH2)?
A: MIC (S. aureus ATCC29213): 2.5 µg/mL (≈ 1.55 µM); MIC (E. coli ATCC25922): 5 µg/mL (≈ 3.09 µM)

Q: What does the source list for `CC[C@H](C)[C@H](NC(=O)[C@H](CCCNC(=N)N)NC(=O)[C@H](CCCCN)NC(=O)[C@@H](NC(=O)[C@@H](N)Cc1ccccc1)[C@@H](C)CC)C(=O)N[C@@H](C)C(=O)N[C@@H](CCCCN)C(=O)N[C@@H](CC(C)C)C(=O)N[C@@H](CC(C)C)C(=O)N[C@@H](CCCNC(=N)N)C(=O)N[C@@H](CCCCN)C(=O)N[C@H](C(=O)N[C@@H](Cc1ccccc1)C(N)=O)[C@@H](C)CC` [Kn2-7(R7K)] (H-FIKRIAKLLRKIF-NH2)?
A: MIC (S. aureus ATCC29213): 5 µg/mL (≈ 3.04 µM); MIC (E. coli ATCC25922): 20 µg/mL (≈ 12.2 µM)

Q: What does the source list for `CC[C@H](C)[C@H](NC(=O)[C@H](CCCNC(=N)N)NC(=O)[C@H](CCCCN)NC(=O)[C@@H](NC(=O)[C@@H](N)Cc1ccccc1)[C@@H](C)CC)C(=O)N[C@@H](C)C(=O)N[C@@H](CCCCN)C(=O)N[C@@H](CC(C)C)C(=O)N[C@@H](CC(C)C)C(=O)N[C@@H](CCCCN)C(=O)N[C@@H](CCCCN)C(=O)N[C@H](C(=O)N[C@@H](Cc1ccccc1)C(N)=O)[C@@H](C)CC` [Kn2-7(R7K_R10K)] (H-FIKRIAKLLKKIF-NH2)?
A: MIC (S. aureus ATCC29213): 5 µg/mL (≈ 3.09 µM); MIC (E. coli ATCC25922): 20 µg/mL (≈ 12.4 µM)

Q: How did the MIC (S. aureus ATCC29213) turn out when `CC[C@H](C)[C@H](NC(=O)[C@H](CCCNC(=N)N)NC(=O)[C@H](CCCCN)NC(=O)[C@@H](NC(=O)[C@@H](N)Cc1ccccc1)[C@@H](C)CC)C(=O)N[C@@H](C)C(=O)N[C@@H](CCCNC(=N)N)C(=O)N[C@@H](CC(C)C)C(=O)N[C@@H](CC(C)C)C(=O)N[C@@H](CCCCN)C(=O)N[C@@H](CCCCN)C(=O)N[C@H](C(=O)N[C@@H](Cc1ccccc1)C(N)=O)[C@@H](C)CC` [Kn2-7(R10K)] (H-FIKRIARLLKKIF-NH2) was run?
A: Its MIC is 5 µg/mL (≈ 3.04 µM).

Q: What about the MIC (E. coli ATCC25922) of the same compound?
A: The MIC was 5 µg/mL (≈ 3.04 µM).

Reference: publication PMC8319832, “Fine-Tuning of Alkaline Residues on the Hydrophilic Face Provides a Non-toxic Cationic α-Helical Antimicrobial Peptide Against Antibiotic-Resistant ESKAPE Pathogens” (Frontiers in Microbiology, 2021)
